Experiment: Fluorescence quenching with tryptophan (steady-state, Stern-Volmer)
Type: physicochemical
Details: phosphate buffered solutions, pH = 8.0, 25° C.; in M-1 (unit assumed)
Protocol: FIG. 4 illustrates the fluorescence quenching by tryptophan. Shown is the fluorescence of Dye 3 in the absence and presence of various concentration of tryptophan (Trp) in phosphate buffer (pH 8) as a function of wavelength.
Steady-state fluorescence spectroscopy was performed for Dye 2, Dye 3, Dye 14, and Mr121 dye in presence of tryptophan at 25° C. in phosphate buffer.
For evaluating the quenching efficiency, the steady-state fluorescence quenching results were analyzed following the Stern-Volmer equation F0/F=1+KQ[Q], where Fo and F are the fluorescence intensities in the absence and presence of tryptophan and KQ is a static Stern-Volmer constant.

Point of comparison: `CC1(C)CC(CS(=O)(=O)[O-])c2cc3c(cc2N1CCCS(=O)(=O)[O-])Oc1cc2c(cc1=N3)C(CS(=O)(=O)[O-])CC(C)(C)[N+]=2CCCC(=O)O.[Na+].[Na+]` (stereo not drawn) [Dye 14, disodium (11-(3-carboxypropyl)-2,2,10,10-tetramethyl-1-(3-sulfonatopropyl)-2,3,4,8,9,10-hexahydro-1H-dipyrido[3,2-b:2′,3′-i]phenoxazine-11-ium-4,8-diyl)dimethanesulfonate], “Tryptophan Stern-Volmer static quenching constant, KQ” value 269 ± 22. Against it:
- CC1(C)CC(CS(=O)(=O)[O-])c2cc3c(cc2=[N+]1CCCC(=O)O)Oc1cc2c(cc1N=3)CCCN2CCCS(=O)(=O)O (stereo not drawn) [Dye 2, sodium 3-(11-(3-carboxypropyl)-10,10-dimethyl-8-(sulfonatomethyl)-2,3,4,8,9,10-hexahydro-1H-dipyrido[3,2-b:2′,3′-i]phenoxazin-11-ium-1-yl)propane-1-sulfonate] — within error, 263 ± 24
- CC1CC(C)(C)N(CCCS(=O)(=O)O)c2cc3c(cc21)N=c1cc2c(cc1O3)=[N+](CCCC(=O)O)C(C)(C)CC2CS(=O)(=O)[O-] (stereo not drawn) [Dye 3, sodium 3-(11-(3-carboxypropyl)-2,2,4,10,10-pentamethyl-8-(sulfonatomethyl)-2,3,4,8,9,10-hexahydro-1H-dipyrido[3,2-b:2′,3′-i]phenoxazin-11-ium-1-yl)propane-1-sulfonate] — higher, 320 ± 26

— patent US20120010404A1, “OXAZINE DYES WITH IMPROVED AQUEOUS SOLUBILITY” (SIGMA-ALDRICH CO., priority 2008, published 2012)
